In article PMC6931124, “NPY1R-targeted peptide-mediated delivery of a dual PPARα/γ agonist to adipocytes enhances adipogenesis and prevents diabetes progression” (Molecular Metabolism, 2019):

Tests used:
HbA1C = type: in vivo; conditions: db/db mice, 2.5 μM/kg/day, 8 days
Description: (§1) All of the experiments were performed according to the animal ethical laws of the state Saxony, Germany, and were approved by the local animal ethics review board (Landesdirektion Sachsen, Leipzig, Germany). Female db/db mice 12–15 weeks of age were purchased from Taconic (Denmark) and housed in groups of 5 in temperature- and humidity-controlled facilities in a 12 h:12 h light–dark cycle and had free access to tap water and food (regular chow, Sniff, Soest, Germany). Three out of seven groups served as controls (N = 15, see Table 1). The 5 db/db mice were untreated and 10 db/db mice were vehicle treated either orally or intraperitoneally (i.p.). […]
All of the mice were monitored for 9 days during the treatment period. Body weight, food intake, and water uptake were recorded daily and body composition (lean body mass and whole body fat mass) was recorded at the beginning, middle, and end of the study in the conscious mice using an EchoMRI system (Echo Medical Systems, Houston, TX, USA). At the beginning and end of the treatment period, the HbA1c levels were determined from 5 μl of whole venous blood samples using an automated chemical analyzer at the Institute of Laboratory Medicine and Clinical Chemistry and beta-ketone using an automated glucose monitor (FreeStyle Precision H, Abbott GmbH, Ludwigshafen, Germany). […]

Serum adiponectin = type: in vivo; conditions: db/db mice, 2.5 μmol/kg/day, 8 days; ELISA; n = 5
Description: as §1, with “(i.p.). One additional group (n = 5) of lean C57BL/6NTac mice was used as a metabolically healthy control group.” for “(i.p.).”
(§2) Serum insulin (mouse insulin ELISA, Mercodia, Uppsala, Sweden), adiponectin (mouse adiponectin ELISA, AdipoGen, San Diego, CA, USA), leptin (mouse leptin ELISA, Crystal Chem, Downers Grove, IL, USA), and Mcp-1 (mouse/rat CCL2/JE/Mcp-1 Quantikine ELISA, R&D Systems, Minneapolis, MN, USA) levels were analyzed via ELISA according to the manufacturer's instructions. Serum concentrations of TG, FFA, and cholesterol were measured by an automatic chemical analyzer at the Institute of Laboratory Medicine and Clinical Chemistry.

Plasma triglycerides = type: in vivo; conditions: db/db mice, 2.5 μmol/kg/day, 8 days; n = 5
Description: as §1, with “(i.p.). One additional group (n = 5) of lean C57BL/6NTac mice was used as a metabolically healthy control group.” for “(i.p.).”
as §2

PPARγ = test: PPAR reporter gene assay (luciferase); type: cell-based
Description: HEK293 cells stably expressing NPY1R C-terminally fused to eYFP were seeded into white 96-well plates, grown to 70–80% confluence, and transfected using Lipofectamine 2000 transfection reagent according to the manufacturer's protocol. For luciferase reporter gene assays, 250 ng reporter plasmid, positive control plasmid or negative control plasmid (Cignal PPAR Reporter (luc) Kit), 250 ng PPARγ expression vector, and 250 ng RXRα expression vector were applied in addition to 0.75 μl of Lipofectamine 2000 transfection reagent per well. For selectivity assays, HEK293 cells without stable NPY1R-eYFP transfection and HEK293 NPY1R-eYFP cells without PPARγ transfection were used. After 24 h of transfection, the cells were treated with tesa or peptides for an additional 24 h. […] Luciferase assays were performed using the Dual-Luciferase System Kit according to the manufacturer's instructions. The relative firefly luciferase activity was normalized by the corresponding Renilla luciferase activity, the luciferase activity of the cells transfected with the negative control plasmid, and the DMSO vehicle control. The assays were performed in at least three independent experiments.
Furthermore, plasmids coding for PPARγ and RXRα were transfected. Because PPARγ binds as a heterodimer with RXRα to PPRE-responsive elements, RXRα is needed for PPARγ activity.
Figure 5 Transcriptional activity of the PPAR reporter gene. […] The depicted values represent mean ± SEM from n ≥ 3 independent experiments. All measurements were normalized to the transcriptional activity of DMSO-treated cells expressing all factors (set to […]). Statistical significance was determined by one-way analysis of variance (ANOVA) followed by Dunnett's multiple comparison test, *≤0.05, **p ≤ 0.01, ***p ≤ 0.001.

PPARγ mRNA in liver = test: PPARγ mRNA expression in liver; type: in vivo; conditions: db/db mice, 2.5 μM/kg/day, 8 days; qRT-PCR relative to control animals
Description: The 3T3-L1 or SGBS cells were seeded into 6-well plates and differentiated as previously described. Tesa or peptides were added to the differentiation medium at a concentration of 100 μM on day 2, followed by 12 h or 24 h incubation. On day 4, the cells were washed two times with PBS, harvested by trypsinization, and stored at −70 °C until RNA isolation was performed. […] N ≥ 3 independent experiments with two replicates were performed. For the cell culture experiments, the data were analyzed according to the 2^−ΔΔCt method using 36B4 or GAPDH as housekeeping genes and DMSO treatment as a control. Liver mRNA expression was calculated relative to 18sRNA, which was used as an internal control due to its resistance to glucose-dependent regulation. The mRNA levels were quantified using the standard curve method of QuantStudio 6 Flex software (Applied Biosystems, Foster City, CA, USA), determining the crossing points of the individual samples using an algorithm that identifies the first turning point of the fluorescence curve. Amplification of the specific transcripts was confirmed by the melting curve profiles (cooling the sample to 68 °C and heating slowly to 95 °C while measuring the fluorescence) at the end of each PCR [53]. […]

ob/ob mice = conditions: free systemically administered tesa; ref [43]; cited from earlier work

CCO[C@@H](Cc1ccc(OCCc2ccc(OS(C)(=O)=O)cc2)cc1)C(=O)O [tesa, tesaglitazar]
HbA1C change (HbA1C; vehicle/untreated increased by approximately 2%, n = 5): graduated reduced increase | diabetes progression (HbA1C; 12-16 weeks old): deceleration of disease progression | adiponectin, serum (Serum adiponectin): normalization of the plasma concentration | triglycerides (Plasma triglycerides): normalization | transcriptional activity in absence of PPARγ (PPARγ; 100 μM, HEK293 NPY1R without PPARγ transfection): complete loss of transcriptional activity | transcriptional activity in absence of NPY1R (PPARγ; 100 μM, HEK293 without NPY1R, with PPARγ): not influenced by NPY1R expression | concentration-response curve / potency in reporter assay (PPARγ; HEK293 NPY1R, PPARγ, RXRα, 24 h): demonstrated a saturation curve | relative transcriptional activity (luciferase) (PPARγ; HEK293 stably expressing NPY1R, transfected with PPAR reporter, PPARγ, RXRα, 24 h treatment, n ≥ 3): Concentration-dependent luciferase activity was detected | expression of PPARγ in the liver (PPARγ mRNA in liver): significantly enhanced the expression of PPARγ in the liver | anti-diabetic effect in ob/ob mice (ob/ob mice): reduce hypertriglyceridemia, hyperinsulinemia, and hyperglycemia in ob/ob mice
